Reference: patent publication US12018011B2, “Macrocyclic compounds and compositions, and methods of preparing and using the same” (Kura Oncology, Inc., priority 2021, dated 2024)
Where two headings read alike, the source gives them in different places.

Key:
[1] = ether bond, 13-membered ring, SOCl2, then Cs2CO3, 2 steps
[2] = ether bond, 13-membered ring, DMF
[3] = target: T1, Recombinant human farnesyl transferase (FTase) (Homo sapiens, UniProt P49356); assay: FTase fluorescence assay (farnesylation of dansyl-GCVLS peptide); format: biochemical; conditions: recombinant human FTase 2.5 nM, Dansyl-GCVLS 85 nM, FPP 30 nM, 30° C., 50 minutes
T1 construct: purchased Crelux (Martinsried, Germany)

[4] = Metabolic stability in mouse liver microsomes; format: in vitro ADME; conditions: CD-1 mouse liver microsomes 0.5 mg protein/mL, test compound 1 μM, 37° C.; read-out: T1/2 in MLM
[5] = target: T2, geranylgeranyl transferase type-1 (GGTase) (Homo sapiens, UniProt P53609); assay: GGTase fluorescence assay (dansyl-GCVLL peptide, GGPP); format: biochemical; conditions: GGTase 25 nM, Dansyl-GCVLL 10 μM, GGPP 10 μM, 30° C., 120 minutes
T2 construct: purchased Crelux (Martinsried, Germany)
Source text: T24/83 cell line was purchased from the European Collection of Authenticated Cell Cultures (Salisbury, UK). Recombinant human farnesyl transferase (FTase) and geranylgeranyl transferase type-1 (GGTase) were obtained from Crelux (Martinsried, Germany). Dansyl labelled GCVLS peptide was purchased from Bachem (Torrance, CA), and Dansyl labelled GCVLL peptide was purchased from Bio Synthesis (Lewisville, TX). Farnesyl Pyrophosphate (FPP) and Geranylgeranyl pyrophosphate (GGPP) were purchased from Cayman (Ann Arbor, MI).
Geranylgeranyl transferase (GGTase) is a closely related enzyme to farnesyl transferase (FTase). The two enzymes share a common regulatory chain but have distinct individual enzymatic domains. GGTase catalyses the addition of an alternative prenylated side chain to some of the same proteins that may also be farnesylated. Thus, selective inhibitory activity against FTase relative to GGTase is a critical characteristic for FTase inhibitors.
The IC50 value of the compounds disclosed herein as inhibitors of Ftase and/or GGTase, was determined by measuring the concentration (provided in nM) necessary to achieve inhibition of enzyme activity by 50% (IC50). […] Compounds having a low IC50 value against FTase, for example an IC50 (FTase)<100 nM, such as an IC50 (FTase)<10 nM, are preferred. Compounds having a low IC50 value against FTase and a high IC50 value against GGTase, for example an IC50 (FTase)<100 nM, such as an IC50 (FTase)<10 nM, and an IC50 (GGTase)>100 nM, are potent and selective inhibitors of FTase, and are particularly preferred.
The inhibition activities of the compounds disclosed herein against Ftase and GGTase were measured in the respective fluorescence assays as follows:
For the GGTase assay, GGTase (25 nM), Dansyl labelled GCVLL peptide (10 μM), GGPP (10 μM) and inhibitor were mixed in assay buffer (50 mM Tris, pH 7.5, 10 mM magnesium chloride, 10 μM zinc chloride, 0.08% CHAPS, 5 mM dithiothreitol) and incubated in a total volume of 20 μL at 30° C. for 120 minutes.
For both the FTase assay and GGTase assay, fluorescence intensity was detected (excitation at 340 nm and emission at 486 nm) using EnVision (PerkinElmer; Waltham, MA), IC50 determinations were performed using a sigmoidal dose-response model with Xlfit software (IDBS, Inc.; Boston, MA), and tipifarnib was used as a positive control. All the assay plates for each assay passed the QC criteria (S/B, Z factor).

[6] = Metabolic stability in human liver microsomes; format: in vitro ADME; conditions: human liver microsomes 0.5 mg protein/mL, test compound 1 μM, 37° C.; read-out: T1/2 in HLM
[7] = test system: T24/83 cells; assay: T24/83 cell proliferation assay (CellTiter-Glo); format: cell-based; conditions: Homo sapiens, 96 h, 4 days
Method in brief: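 HRAS-mutant T24/83 bladder carcinoma cells seeded at 100 cells/well and grown with inhibitor for 4 days at 37 °C; 0.7% DMSO negative control, 100 μM tipifarnib positive control. Viability by CellTiter-Glo luminescence.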

[8] = ether bond

Compound	IC50 [3] [nM]	half-life at 1 μM [4] [min]	IC50 [5] [nM]	half-life at 1 μM [6] [min]	IC50 [7] [nM]	also measured
4^4-bromo-2^2-chloro-3-(1-methyl-1H-imidazol-5-yl)-6-oxa-2(4,6)-quinolina-1,4(1,3)-dibenzenacyclohexaphan-3-ol						ring closure, crude yield ([1]; DMF, 116.2 mM, 70.0 °C): 84%
4^4-bromo-2^2-methoxy-3-(1-methyl-1H-imidazol-5-yl)-6-oxa-2(4,6)-quinolina-1,4(1,3)-dibenzenacyclohexaphan-3-ol						ring closure, crude yield ([1]; DMF, 122.7 mM, 70.0 °C): 84.8%
4^4-bromo-3-(1-methyl-1H-imidazol-5-yl)-6-oxa-2(1,7)-isoquinolina-1,4(1,3)-dibenzenacyclohexaphan-3-ol						ring closure, isolated yield ([2]; Cs2CO3, 77.0 mM, 50.0 °C): 60.6%
4^4-chloro-2^2-methoxy-3-(1-methyl-1H-imidazol-5-yl)-6-oxa-2(4,6)-quinolina-1,4(1,3)-dibenzenacyclohexaphan-3-ol						ring closure, crude yield ([1]; DMF/THF 1:3, 9.96 mM, 105.0 °C): 90.7%
4^4-chloro-2^2-methoxy-3-(4-methyl-4H-1,2,4-triazol-3-yl)-6-oxa-2(4,6)-quinolina-1,4(1,3)-dibenzenacyclohexaphan-3-ol						ring closure, isolated yield ([2]; K2CO3, 29.8 mM, 55.0 °C): 69.1%
4^6-chloro-2^2-methoxy-3-(1-methyl-1H-imidazol-5-yl)-6-oxa-2(4,6)-quinolina-4(3,5)-pyridina-1(1,3)-benzenacyclohexaphan-3-ol						ring closure, crude yield ([1]; DMF, 64.5 mM, 70.0 °C): 95.6%
COc1cc2c3cc(ccc3n1)C(O)(c1nncn1C)c1ccc(Cl)c(c1)COc1cccc-2c1 (stereo not shown) [Compound 49, 4^4-chloro-2^2-methoxy-3-(4-methyl-4H-1,2,4-triazol-3-yl)-6-oxa-2(4,6)-quinolina-1,4(1,3)-dibenzenacyclohexaphan-3-ol]	> 100					ring closure, yield of all isomers ([8]; from COc1cc(-c2cccc(O)c2)c2cc(C(O)(c3ccc(Cl)c(CCl)c3)c3nncn3C)ccc2n1, K2CO3, DMF, 29.8 mM, 55.0 °C, 12.0 h): 19%
COc1cc2c3cc(ccc3n1)C(O)(c1cncn1C)c1ccc(Br)c(c1)COc1cccc-2c1 (stereo not shown) [Compound 52, 4^4-bromo-2^2-methoxy-3-(1-methyl-1H-imidazol-5-yl)-6-oxa-2(4,6)-quinolina-1,4(1,3)-dibenzenacyclohexaphan-3-ol]	10 to 100					ring closure, yield of all isomers ([8]; from COc1cc(-c2cccc(O)c2)c2cc(C(O)(c3ccc(Br)c(CO)c3)c3cncn3C)ccc2n1, Cs2CO3, DMF, 122.7 mM, 70.0 °C, 0.5 h, 2 steps): 84.8%
COc1cc2c3cc(ccc3n1)C(O)(c1cncn1C)c1cnc(Cl)c(c1)COc1cccc-2c1 (stereo not shown) [Compound 59, 4^6-chloro-2^2-methoxy-3-(1-methyl-1H-imidazol-5-yl)-6-oxa-2(4,6)-quinolina-4(3,5)-pyridina-1(1,3)-benzenacyclohexaphan-3-ol]	> 100					ring closure, yield of all isomers ([8]; from COc1cc(-c2cccc(O)c2)c2cc(C(O)(c3cnc(Cl)c(CO)c3)c3cncn3C)ccc2n1, SOCl2 then Cs2CO3, DMF, 64.5 mM, 70.0 °C, 1.0 h, 2 steps): 95.6%
Cn1cncc1[C@@](N)(c1ccc(Cl)cc1)c1ccc2c(c1)c(-c1cccc(Cl)c1)cc(=O)n2C [Tipifarnib, tipifarnib, reference compound]	≤ 10	< 5	> 1000	< 30	≤ 50	

More lines, main results first:

IC50 [3] [nM]	half-life at 1 μM [4] [min]	IC50 [5] [nM]	half-life at 1 μM [6] [min]	IC50 [7] [nM]	Compound	also measured
≤ 10	5 to 15	> 1000	> 100	≤ 50	Cn1cncc1[C@@]1(N)c2ccc(Cl)c(c2)COc2cccc(c2)-c2cc(=O)n(C)c3ccc1cc23 [(S)-46, (S)-3-amino-4^4-chloro-2^1-methyl-3-(1-methyl-1H-imidazol-5-yl)-2^1,2^2-dihydro-6-oxa-2(4,6)-quinolina-1,4(1,3)-dibenzenacyclohexaphan-2^2-one]	
≤ 10	5 to 15	> 1000	> 100	≤ 50	[2H]C([2H])([2H])n1c(=O)cc2c3cc(ccc31)[C@@](N)(c1cncn1C)c1ccc(Cl)c(c1)COc1cccc-2c1 [(S)-47, (S)-3-amino-4^4-chloro-2^1-(methyl-d3)-3-(1-methyl-1H-imidazol-5-yl)-2^1,2^2-dihydro-6-oxa-2(4,6)-quinolina-1,4(1,3)-dibenzenacyclohexaphan-2^2-one]	
≤ 10	> 15	> 1000	> 100	50 to 500	Cn1cnnc1[C@@]1(N)c2ccc(Cl)c(c2)COc2cccc(c2)-c2cc(=O)n(C)c3ccc1cc23 [(S)-51, (S)-3-amino-4^4-chloro-2^1-methyl-3-(4-methyl-4H-1,2,4-triazol-3-yl)-2^1,2^2-dihydro-6-oxa-2(4,6)-quinolina-1,4(1,3)-dibenzenacyclohexaphan-2^2-one]	
≤ 10	> 15	> 1000	> 100	≤ 50	[2H]C([2H])([2H])n1c(=O)cc2c3cc(ccc31)[C@@](N)(c1cncn1C)c1ccc(C#N)c(c1)COc1cccc-2c1 [(S)-56, (S)-3-amino-2^1-(methyl-d3)-3-(1-methyl-1H-imidazol-5-yl)-2^2-oxo-2^1,2^2-dihydro-6-oxa-2(4,6)-quinolina-1,4(1,3)-dibenzenacyclohexaphane-4^4-carbonitrile]	
≤ 10	> 15	> 1000	> 100	≤ 50	Cn1cncc1[C@@]1(N)c2ccc(C#N)c(c2)COc2cccc(c2)-c2cc(C#N)nc3ccc1cc23 [(S)-58, (S)-3-amino-3-(1-methyl-1H-imidazol-5-yl)-6-oxa-2(4,6)-quinolina-1,4(1,3)-dibenzenacyclohexaphane-2^2 4^4-dicarbonitrile]	
10 to 100					COc1cc2c3cc(ccc3n1)C(O)(c1cncn1C)c1ccc(Cl)c(c1)COc1cccc-2c1 (stereo not shown) [Compound 43, 4^4-chloro-2^2-methoxy-3-(1-methyl-1H-imidazol-5-yl)-6-oxa-2(4,6)-quinolina-1,4(1,3)-dibenzenacyclohexaphan-3-ol]	ring closure, yield of all isomers ([8]; from COc1cc(-c2cccc(O)c2)c2cc(C(O)(c3ccc(Cl)c(CO)c3)c3cncn3C)ccc2n1, Cs2CO3, THF, 9.5 mM, 105.0 °C, 10.0 h, 2 steps): 82.9%
> 100					Cn1cncc1C1(O)c2ccc(Br)c(c2)COc2cccc(c2)-c2cc(Cl)nc3ccc1cc23 (stereo not shown) [Compound 71, 4^4-bromo-2^2-chloro-3-(1-methyl-1H-imidazol-5-yl)-6-oxa-2(4,6)-quinolina-1,4(1,3)-dibenzenacyclohexaphan-3-ol]	ring closure, yield of all isomers ([8]; from Cn1cncc1C(O)(c1ccc(Br)c(CO)c1)c1ccc2nc(Cl)cc(-c3cccc(O)c3)c2c1, Cs2CO3, DMF, 116.2 mM, 70.0 °C, 2.0 h, 2 steps): 84%
